{
  "source": "patent US20150174144A1",
  "about": "“TETRACYCLINE COMPOUNDS FOR TREATING NEURODEGENERATIVE DISORDERS” (PARATEK PHARMACEUTICALS, INC., priority 2012, published 2015)",
  "key": {"MBP-induced EAE": {"system": "MBP-induced EAE", "experiment": "MBP-induced Lewis rat EAE", "assay_type": "in vivo", "conditions": "i.p. daily from day 9", "from_the_text": "(§1) The inhibitory activity of Compound 1 was characterized in both mouse and rat models of EAE. Mice were immunized s.c. with myelin oligodendrocyte glycoprotein (MOG) peptide 35-55 in CFA and later injected i.v. with Pertussis toxin. Mice were randomized at day 10 and given compound i.p. Compounds were subsequently administered daily and the animals assessed for clinical score. Mice were scored as follows: 0=no disease; 1=limp tail; 2=paralysis of one or both hind limbs; 4=paralysis of both hind- and forelimbs. […] Rats were dosed daily i.p. with compound starting day 9. Rats were scored daily and cumulative scores were determined by adding the average daily scores over the experimental period. […] The average daily scores+/−SEM and the cumulative average scores are shown. Cumulative average scores were determined by adding the average daily scores over the experimental period."}, "[1]": {"system": "ferric iron-induced lipid peroxidation among rat brain tissue", "experiment": "Ferric iron-induced lipid peroxidation in rat brain tissue", "assay_type": "biochemical", "method": "Tetracycline compounds were tested in an in vitro assay of ferric iron-induced lipid peroxidation among rat brain tissue."}, "[2]": {"experiment": "Preliminary embryofetal DRF study in rats", "assay_type": "in vivo", "conditions": "high dose of 250 mg/kg"}, "[3]": {"system": "Fmr1 KO mice and wild-type littermates", "experiment": "Open Field test, mouse model of Fragile X Syndrome", "assay_type": "in vivo", "conditions": "10 mg/kg/d i.p. osmotic pump, 1 week", "method": "(§2) The purpose of this study was to test Compound 1 for treating Fragile X Syndrome. This study utilized Fmr1 KO mice, an animal model of Fragile X Syndrome.\n(§3) The Fmr1 KO mice (C57BL/6 background) were kindly provided the FRAXA Foundation. Mice were housed in groups of the same genotype in a temperature and humidity controlled room with a 12-h light-dark cycle (lights on 7 am to 7 pm). Testing was conducted during the light phase. Food and water were available ad libitum. Testing was conducted on Fmr1 KO mice and their wild-type littermates. They were housed in commercial plastic cages purchased in the UK. Experiments were conducted in line with the requirements of the UK Animals (Scientific Procedures) Act, 1986.\n(§4) The dosing protocol used is shown below. Mice were dosed at 6-7 weeks by intraperitoneal (i.p.) infusion by osmotic pump (0.5 μl/hour) for 1 week. The solution of 0.9% saline was used as a vehicle, and 10 mice were dosed per each group."}, "[4]": {"experiment": "Cardiovascular safety study in monkeys", "assay_type": "in vivo"}, "MOG peptide-induced EAE": {"system": "MOG peptide-induced EAE", "experiment": "MOG peptide-induced EAE in mice", "assay_type": "in vivo, C57BL/6 mouse", "conditions": "mouse, i.p. daily from day 10", "from_the_text": "as §1"}, "[5]": {"experiment": "Alkylperoxy radical scavenging assay (AIPH, AE-Trolox oxidation)", "method": "In a separate assay, alkylperoxy radicals were generated in vitro using the radical generator AIPH (2,2′-azobis-[2-(2-imidazolyn-2-yl)-propane) and the ability of tetracyclines to scavenge these radicals was determined. […] Also, the ability of Compound 1 and minocycline to specifically scavenge peroxynitrite-carbonate radicals was determined.\nIn this study, alkylperoxy radicals were generated in vitro using the radical generator AIPH (2,2′-azobis-[2-(2-imidazolyn-2-yl)-propane) and the ability of tetracyclines, such as Compound 1, to scavenge these radicals was determined.\nTrolox is a known scavenger of peroxyradicals. Structurally similar to a-tocopherol, Trolox reacts with peroxyradicals via a known mechanism with linear kinetics under excess oxygen conditions. In the presence of a competing antioxidant compound, the rate of Trolox oxidation will change based on the relative rate of oxidation and concentration of the competing antioxidant compound (Huang, et al., J. Agric. Food Chem. 2005, 25, 1841-1856). By measuring the effect of antioxidant concentration on the rate of degradation of Trolox, the relative antioxidant capacity of a compound can be determined. This principle is the basis of the widely used antioxidant capacity assay, ORAC (Huang, et al., J. Agric. Food Chem. 2002, 50, 1815-1821). Unlike ORAC which uses a fluorescent dye indicator, the assay described here directly measures the oxidation of the Trolox derivative, 2-aminoethyl-Trolox (AE-Trolox). This method eliminates interference of the fluorescent dye reaction by tetracycline compounds.\nTo the first column of a 96-well PCR plate (0.2 mL volume) was added 160 μL of TCWS. One well of the first column would equal one IC50 determination. […] To the remaining wells in columns 2-11 was added 80 μL of AET-WS. Using a multichannel pipettor, column 1 was serially diluted in 2-fold dilutions by removing 80 μL from column 1 and transferring with mixing to column 2. Column 2 was then diluted to column 3 and so on until column 11 where 80 μL of the diluted mixture was removed and discarded. Four wells of row 12 were designated as the 0 test compound/0 AIPH control to which 80 μL of AET-WS was added. One well of row 12 per test compound was designated as the 0 test compound control to which 80 μL of the AET-WS was added.\nThe plate was covered and incubated for 5 minutes at 37° C. upon which the reaction was initiated by addition of 20 μL of AIPH to columns 1-11 using a multichannel pipettor with mixing. The reaction was initiated similarly to the 0 test compound wells of column 12. To the 0 test compound/0 AIPH control wells was added 20 μL of PB buffer. The plate was incubated at 37° C. for 8 minutes (the reaction is linear for 10 minutes) and quenched by addition of 50 μL of AA to all wells with mixing. The plate was placed on ice for 5 minutes. Quenched assay mixtures were stable at room temperature for at least 24 hours.\nEach reaction mixture was analyzed for AE-Trolox by 2D-LCMS on a Shimadzu 2010 equipped with a loading column (Shim-pack MAYI-ODS, 4.6×10 mm) and a gradient column Phenomenex Luna C18(2) column, 3 um, 4.6×50 mm. Using an automated 2-position swithching valve, samples were loaded onto the loading column by Pump C and washed for 1 minute with loading buffer. At 1 minute, the valve was switched to elution position (Position B, reversed flow through loading column) and the samples were eluted through the gradient column. The loading buffer (Buffer C) was 10% acetonitrile in water with 0.2% formic acid and the gradient buffers were water+0.2% formic acid (A buffer) and acetonitrile+0.2% formic acid (B buffer). Typical injection volumes were 30 μL.\nFrom the TIC integration of AE-Trolox and AE-Trolox-d4, a ratio was calculated:\nRatio=AUCAE-Trolox/AUCAE-Trolox-d4\nPercent inhibition of AE-Trolox oxidation (measured as disappearance of AE-Trolox) was then determined by:\n% Inhibition=[1−((Ratio0−Ratiox)/(Ratioo−Ratiof))]*100"}, "Genotoxicity": {"experiment": "Genotoxicity", "conditions": "pre-clinical safety studies"}, "Fmr1 KO2 mice": {"system": "Fmr1 KO2 mice", "experiment": "Contextual fear conditioning, mouse model of Fragile X Syndrome", "assay_type": "in vivo", "conditions": "acute stress conditions", "method": "as §2, §3, §4\nFreezing as a species-specific response to fear was measured."}},
  "note": "pIC50: −log10 of the molar value.",
  "data": [
    {"smiles": "CCc1cc(N(C)C)c2c(c1O)C(=O)C1=C(O)[C@]3(O)C(=O)C(C(N)=O)=C(O)[C@@H](N(C)C)[C@@H]3C[C@@H]1C2", "note": "[Compound 1]", "values": [
      {"measurement": "Effect on clinical course of EAE (onset, maximum disease severity)", "setting": "MBP-induced EAE", "value": "both delayed the onset and inhibited the maximum disease severity more potently than minocycline"},
      {"measurement": "Lipid peroxidation (% of Control)", "setting": "[1]; 1.0 μM", "value": "92 % of Control"},
      {"measurement": "Lipid peroxidation (% of Control)", "setting": "[1]; 10 μM", "value": "68 % of Control"},
      {"measurement": "Lipid peroxidation (% of Control)", "setting": "[1]; 100 μM", "value": "56 % of Control"},
      {"measurement": "Effects on fetal body weight", "setting": "[2]", "value": "only slight effects on fetal body weight"},
      {"measurement": "Open Field Test - Trial 2, Mean time", "setting": "[3]; Fmr1 KO mice", "value": 97.100, "unit": "min"},
      {"measurement": "Open Field Test - Trial 3, Mean time", "setting": "[3]; Fmr1 KO mice", "value": 72.600, "unit": "min"},
      {"measurement": "Open Field Test - Trial 2, Mean time", "setting": "[3]; WT mice", "value": 83.900, "unit": "min"},
      {"measurement": "Open Field Test - Trial 3, Mean time", "setting": "[3]; WT mice", "value": 68.300, "unit": "min"},
      {"measurement": "Cardiovascular safety findings", "setting": "[4]", "value": "No treatment-related effects were observed"},
      {"measurement": "Effect on clinical course of EAE (onset, maximum disease severity)", "setting": "MOG peptide-induced EAE", "value": "both delayed the onset and inhibited the maximum disease severity more potently than minocycline"},
      {"measurement": "pIC50", "setting": "[5]; 5 mM AIPH, 37° C., 8 minutes, read-out: IC50, inhibition of AE-Trolox oxidation (alkylperoxy radical scavenging)", "value": 4.90},
      {"measurement": "Percent Trolox Activity", "setting": "[5]; relative to Trolox", "value": 71, "unit": "%"},
      {"measurement": "Trolox Equivalents", "setting": "[5]; relative to Trolox", "value": 0.71},
      {"measurement": "Effects in genotoxicity", "setting": "Genotoxicity", "value": "no significant effects"},
      {"measurement": "Contextual fear conditioning, learning deficit (freezing)", "setting": "Fmr1 KO2 mice", "value": "failed to fully rescue the learning deficit"}
    ]}
  ]
}
